From patent US20190015379A1, “USE OF DIANHYDROGALACTITOL AND ANALOGS AND DERIVATIVES THEREOF, TOGETHER WITH RADIATION, TO TREAT NON-SMALL-CELL CARCINOMA OF THE LUNG AND GLIOBLASTOMA MULTIFORME AND SUPPRESS PROLIFERATION OF CANCER STEM CELLS” (DelMar Pharmaceuticals, Inc., priority 2014, published 2019)

Tests used:
[1] = system: progressive secondary brain tumor; assay: Phase I/II dose-escalation study, tumor response in secondary brain tumor patients; assay type: in vivo, human; conditions: n = 6
Text: The methodology of the study reported in this Example is as follows: An open-label, single arm Phase I/II dose-escalation study designed to evaluate the safety, tolerability, pharmacokinetics and anti-tumor activity of dianhydrogalactitol in patients with: (i) histologically confirmed initial diagnosis of primary WHO Grade IV malignant GBM, now recurrent, or (ii) progressive secondary brain tumor, having failed standard brain radiotherapy, and with brain tumor progression after at least one line of systemic therapy. The study utilizes a 3+3 dose escalation design, until the MTD or the maximum specified dose is reached. Patients receive dianhydrogalactitol intravenously at the assigned dose on days 1, 2, and 3 of each 21-day treatment cycle. In Phase II, additional patients will be treated at the MTD (or other selected optimum Phase II dose) to measure tumor responses. All patients enrolled have previously been treated with surgery and/or radiation, if appropriate, and must have failed both bevacizumab and TMZ, unless contraindicated. For these studies, the following is a summary of the inclusion criteria: (1) Patients must be greater than or equal to 18 years old. […]
Enrollment and evaluation of Cohort 7 (40 mg/m^2) is ongoing. […] Tumor volume is assessed during the study based on RANO criteria. […]

[2] = Tolerability in A549 tumor-bearing Rag2 mice (body weight, CBC, clinical observations)
Method: Tumor growth was monitored by measuring tumor dimensions with calipers beginning on the first day of treatment. Tumor length and width measurements were obtained each Monday, Wednesday, and Friday. Tumor volumes were calculated according to the equation L×W^2/2 with the length (in mm) being defined as the longer axis of the tumor. Animals were weighed at the time of tumor measurement. Tumors were allowed to grow to a maximum of 800 mm^3 before termination.
All animals had blood collected by cardiac puncture at termination for CBC (complete blood count) with differentiation.
In particular, signs of ill-health were based on body weight loss, change in appetite, and behavioral signs such as altered gait, lethargy, and gross manifestations of stress. If signs of severe toxicity or tumor-related illness were seen, the animals were terminated by isoflurane overdose followed by CO2 asphyxiation, and a necropsy was performed to assess other signs of toxicity. The following organs were examined: liver, gall bladder, spleen, lung, kidney, heart, intestine, lymph nodes, and bladder. Any unusual findings were noted.

[3] = system: normal human neural stem cells; conditions: neurosphere growth assays; Hu et al. 2012; cited from earlier work
[4] = Phase I/II dose-escalation study, safety (DLT, SAE, MTD); assay type: in vivo, human; conditions: for drug-related serious adverse events: dose cohorts completed to date
Text: The methodology of the study reported in this Example is as follows: An open-label, single arm Phase I/II dose-escalation study designed to evaluate the safety, tolerability, pharmacokinetics and anti-tumor activity of dianhydrogalactitol in patients with: (i) histologically confirmed initial diagnosis of primary WHO Grade IV malignant GBM, now recurrent, or (ii) progressive secondary brain tumor, having failed standard brain radiotherapy, and with brain tumor progression after at least one line of systemic therapy. The study utilizes a 3+3 dose escalation design, until the MTD or the maximum specified dose is reached. […] In Phase II, additional patients will be treated at the MTD (or other selected optimum Phase II dose) to measure tumor responses. All patients enrolled have previously been treated with surgery and/or radiation, if appropriate, and must have failed both bevacizumab and TMZ, unless contraindicated. For these studies, the following is a summary of the inclusion criteria: (1) Patients must be greater than or equal to 18 years old. (2) There is a histologically confirmed initial diagnosis of primary WHO Grade IV malignant glioma (glioblastoma), now recurrent, or progressive secondary brain tumor, the patient has failed standard brain radiotherapy, and the patient has brain tumor progression after at least one line of systemic therapy. […] (4) The patient must have a predicted life expectancy of at least 12 weeks. The following is a summary of the exclusion criteria: (1) There is a current history of neoplasm other than the entry diagnosis. Patients with previous cancers treated and cured with local therapy alone may be considered. (2) There is evidence of leptomeningeal spread of disease. […] (4) The patient had undergone prior treatment with intracerebral agents. […] (6) The patient is being administered concomitant medications that are strong inhibitors of cytochrome P450 and CYP3A up to 14 days before Cycle 1, Day 1 (pimozide, diltiazem, erythromycin, clarithromycin, and quinidine, and amiodarone up to 90 days before.
(§1) Enrollment and evaluation of Cohort 7 (40 mg/m^2) is ongoing. Higher doses may be enrolled subject to completion of mandated safety observation period with Cohort 6 (30 mg/m^2). Patients enrolled present with refractory progressive GBM and a dire prognosis. […] The primary endpoint of this portion of the study is to determine a modernized dosing regimen for advancement to registration-directed clinical trials. […] In this design, it is not possible to perform a rigorous assessment of patient benefit due to slowed tumor growth. Tumor volume is assessed during the study based on RANO criteria. […] Outcomes analysis of cohort 6 is ongoing. These preliminary data support continued exploration of higher dose cohorts.

[5] = system: GBM cell lines SF188, U251, and T98G; assay: Tumor growth inhibition in GBM cell lines (FIG. 29); assay type: cell-based, human; conditions: MGMT negative SF188 and U251, MGMT positive T98G
[6] = system: recurrent glioblastoma multiforme (GBM); assay: Phase I/II dose-escalation study, tumor response in GBM patients; assay type: in vivo, human
Text: The methodology of the study reported in this Example is as follows: An open-label, single arm Phase I/II dose-escalation study designed to evaluate the safety, tolerability, pharmacokinetics and anti-tumor activity of dianhydrogalactitol in patients with: (i) histologically confirmed initial diagnosis of primary WHO Grade IV malignant GBM, now recurrent, or (ii) progressive secondary brain tumor, having failed standard brain radiotherapy, and with brain tumor progression after at least one line of systemic therapy. The study utilizes a 3+3 dose escalation design, until the MTD or the maximum specified dose is reached. Patients receive dianhydrogalactitol intravenously at the assigned dose on days 1, 2, and 3 of each 21-day treatment cycle. In Phase II, additional patients will be treated at the MTD (or other selected optimum Phase II dose) to measure tumor responses. All patients enrolled have previously been treated with surgery and/or radiation, if appropriate, and must have failed both bevacizumab and TMZ, unless contraindicated. For these studies, the following is a summary of the inclusion criteria: (1) Patients must be greater than or equal to 18 years old. (2) There is a histologically confirmed initial diagnosis of primary WHO Grade IV malignant glioma (glioblastoma), now recurrent, or progressive secondary brain tumor, the patient has failed standard brain radiotherapy, and the patient has brain tumor progression after at least one line of systemic therapy. […] (4) The patient must have a predicted life expectancy of at least 12 weeks. The following is a summary of the exclusion criteria: (1) There is a current history of neoplasm other than the entry diagnosis. Patients with previous cancers treated and cured with local therapy alone may be considered. (2) There is evidence of leptomeningeal spread of disease. […] (4) The patient had undergone prior treatment with intracerebral agents. […] (6) The patient is being administered concomitant medications that are strong inhibitors of cytochrome P450 and CYP3A up to 14 days before Cycle 1, Day 1 (pimozide, diltiazem, erythromycin, clarithromycin, and quinidine, and amiodarone up to 90 days before.
as §1

[7] = secondary brain tumor patients, n = 6

## dianhydrogalactitol
[1]; secondary brain tumors (breast adenocarcinoma 2, small-cell lung carcinoma 3, melanoma 1)
  Tumor Response, Overall: Overall = 17%
[1]; secondary brain tumors
  Tumor Response, SD (number of patients): SD (1)
[2]; dianhydrogalactitol 6 mg/kg (group 5)
  body weight loss: body weight loss was observed
[2]; dianhydrogalactitol 6 mg/kg, only 3 of 9 scheduled doses administered
  tolerability of the dosage: significant weight loss and morbidity
[2]; groups 4 or 5 (dianhydrogalactitol 3 or 6 mg/kg)
  hemoglobin (g/L), CBC at termination, versus untreated control: Statistical significance (p<0.05)
[3]
  effect on normal human neural stem cells: minimal effect
[4]; 1.5 mg/m^2, cumulative 9 mg/m^2 in 33-day cycle
  Status (DLT): Completed - No DLT
[4]; 3.0 mg/m^2, cumulative 18 mg/m^2 in 33-day cycle
  Status (DLT): Completed - No DLT
[4]; 5.0 mg/m^2, cumulative 30 mg/m^2 in 33-day cycle
  Status (DLT): Completed - No DLT
[4]; 10.0 mg/m^2, cumulative 60 mg/m^2 in 33-day cycle
  Status (DLT): Completed - NO DLT
[4]; 20.0 mg/m^2 (revised scheme), cumulative 120 mg/m^2 in 33-day cycle
  Status (DLT): Completed - NO DLT
[4]; 30.0 mg/m^2 (revised scheme), cumulative 180 mg/m^2 in 33-day cycle, analysis ongoing
  Status (DLT): Completed - No DLT
[4]; GBM patients, n = 8
  DLT: None
[4]
  drug-related serious adverse events: No drug-related serious adverse events have been detected
[4]; listed as Dianhydrogalactitol
  drug-related serious adverse events: no drug-related serious adverse events have been detected
[4]; five dose cohorts completed, not yet reached
  maximum tolerated dose (MTD), as 33 day cycle cumulative dose: > 120 mg/m^2
[4]; i.v. on days 1, 2, and 3 of each 21-day cycle, not reached
  maximum tolerated dose (MTD): > 30 mg/m^2
[4]; [7]
  DLT: None
  SAE: None (n = 5)
[5]
  inhibition of tumor growth compared with TMZ: better than TMZ for inhibiting tumor growth
[6]; 30 mg/m^2, one of two patients, after 1 cycle of treatment
  tumor response in cohort 6: stable disease
[6]; GBM, n = 8
  Tumor Response, PR (number of patients): PR (1); SD (1)
  Tumor Response, SD (number of patients): PR (1); SD (1)
[6]; GBM, n = 8, prior Surgery/XRT/TMZ/BEV
  Tumor Response, Overall: Overall = 25%
[6]; Patient #26, T=64 days versus T=0, after two cycles
  MRI scan findings: Thick confluent regions of abnormal enhancement have diminished
